System: osteoclast pregenitor cells
Assay: Inhibition rates of furan derivatives versus osteoclast formation (TRAP staining)
Type: cell-based, mice
Settings: TRAP-positive multinucleated cells, untreated control set as 100%
Description: First, bone marrow cells were isolated, as follow. After sacrificing 7-9 week female mice by cervical dislocation, femur and tibia were excised aseptically while removing attached soft tissues. After cutting both ends of long bones, 1 ml of an enzyme solution, containing 0.1% collagenase (Gibco), 0.05% trypsin and 0.5 mM EDTA (Gibco), was injected to the bone marrow cavity at one end using a syringe with a 26-guage needle, and bone marrow was then collected. After shaking the recovered bone marrow for 30 min, bone marrow cells were collected, and cultured in α-minimum essential medium (α-MEM) supplemented with 10% FBS for 24 hrs. Then, non-adherent cells were collected, which are osteoclast pregenitors, aliquotted onto culture plates at a density of 2×10^5 cells per well, and cultured for 8 days in α-MEM supplemented with 20 ng/ml of macrophage-colony stimulating factor (M-CSF, Peprotech, USA) and 30 ng/ml RANKL (Peprotech, USA). During the 8 days of culturing, the cells were treated with the Compound 1. Thereafter, osteoclast formation was investigated by fixing the cultured cells and then carrying out TRAP staining, as described in the following Experimental Example 2.2. In addition, resorption activity of osteoclasts was investigated by measuring the absorption area after removing osteoclasts in cultures in calcium phosphate-coated plates, as described in Experimental Example 2.3, below.
After cell culture, the adherent cells were washed with PBS, and TRAP staining was performed, as follows. After being fixed with citrate-acetate-formaldehyde for 5 min, the cells were incubated for 1 hr in acetate buffer (prewarmed at 37° C., pH 5.0) containing naphthol AS-BI phosphate, fast Garnet GBC and 7 mM tartrate buffer (pH 5.0). TRAP-positive multinucleated cells having 3 or more nuclei were considered as osteoclasts.
Osteoclast pregenitor cells were isolated, and their differentiation to mature osteoclasts was induced, according to the same method as in the Experimental Example 2-1, while treated with each of the furan derivatives of the present invention. According to the same method as in the Experimental Example 2-2, TRAP staining performed, and TRAP-positive multinucleated cells were counted. An inhibition rate of each furan derivative against osteoclast formation was expressed as percentage, wherein the number of stained cells in a control not treated the furan derivative was arbitrarily set as 100% (Tables 14 to 16).

Compound | Inhibition rate against osteoclast formation, % (0.1 μM) [%] | Inhibition rate against osteoclast formation, % (1 μM) [%] | Inhibition rate against osteoclast formation, % (10 μM) [%]
O=Cc1ccc(COC(=O)Cc2ccccc2)o1 [Compound 32] | 0 | 23.3 | 50
O=Cc1ccc(COC(=O)Cc2c(F)cccc2F)o1 [Compound 33] | 0 | 3.3 | 50
O=Cc1ccc(COC(=O)Cc2c(F)cccc2Cl)o1 [Compound 34] | 0 | 16.7 | 36.7
O=Cc1ccc(COC(=O)Cc2cccc(Cl)c2)o1 [Compound 35] | 0 | 23.33 | 43.33
O=Cc1ccc(COC(=O)Cc2ccsc2)o1 [Compound 36] | 0 | 6.67 | 30
O=Cc1ccc(COC(=O)Cc2cccc(F)c2)o1 [Compound 37] | 0 | 10 | 6.67
O=Cc1ccc(COC(=O)Cc2ccc3ccccc3c2)o1 [Compound 38] | 0 | 23.33 | 20
O=Cc1ccc(COC(=O)Cc2ccc(F)cc2F)o1 [Compound 39] | 0 | 10 | 56.67
O=Cc1ccc(COC(=O)C(c2ccccc2)(c2ccccc2)c2ccccc2)o1 [Compound 40] | 0 | 16.67 | 43.33
COc1cccc(F)c1CC(=O)OCc1ccc(C=O)o1 [Compound 41] | 0 | 6.67 | 56.67
COc1ccc(F)c(CC(=O)OCc2ccc(C=O)o2)c1 [Compound 42] | 0 | 23.33 | 53.33
O=Cc1ccc(COC(=O)Nc2cccc(Cl)c2)o1 [Compound 49] | 0 | 10 | 0
O=Cc1ccc(COC(=O)Nc2ccc(Br)cc2)o1 [Compound 50] | 0 | 10 | 0
CCCCNC(=O)OCc1ccc(C=O)o1 [Compound 53] | 0 | 10 | 36.67
O=Cc1ccc(COC(=O)Nc2ccc(Cl)c(Cl)c2)o1 [Compound 54] | 0 | 0 | 10
O=Cc1ccc(COC(=O)Nc2ccccc2Cl)o1 [Compound 55] | 0 | 20 | 20
C=CCc1ccc(OCc2ccc(C(=O)OC)o2)c(OC)c1 [Compound 59] | 0 | 0 | 15.95
COC(=O)c1ccc(COc2ccc(Cl)cc2Cl)o1 [Compound 60] | 0 | 0 | 32.75

Compound | Inhibition rate against osteoclast formation, % (0.1 μM) [%] | Inhibition rate against osteoclast formation, % (1 μM) [%] | Inhibition rate against osteoclast formation, % (10 μM) [%]
COC(=O)c1ccc(COc2ccccc2Cl)o1 [Compound 61] | 0 | 0 | 11.66
COC(=O)c1ccc(COc2ccc(Cl)cc2[N+](=O)[O-])o1 [Compound 66] | 0 | 0 | 13.58
COC(=O)c1ccc(COc2ccccc2[N+](=O)[O-])o1 [Compound 67] | 0 | 0 | 15.92
COC(=O)c1ccc(COc2cc(C)ccc2C(C)C)o1 [Compound 68] | 0 | 0 | 
COC(=O)c1ccc(COc2ccc3c(c2)CCC3)o1 [Compound 70] | 0 | 0 | 3.34
COC(=O)c1ccc(COc2ccc(Cl)c(C)c2)o1 [Compound 75] | 0 | 0 | 0.78
COC(=O)c1ccc(COc2ccc(I)cc2)o1 [Compound 79] | 0 | 0 | 34.65
COC(=O)c1ccc(COc2ccc(Cl)cc2)o1 [Compound 80] | 0 | 0 | 15.19
COC(=O)c1ccc(CN(C)C)o1 [Compound 85] | 0 | 0 | 3.75
COC(=O)c1ccc(CNc2ccccc2)o1 [Compound 89] | 0 | 0 | 12.6
COC(=O)c1ccc(CNC(C)(C)C)o1 [Compound 91] | 0 | 0 | 9.89
COc1ccccc1OCc1ccc(C(=O)OC(C)C)o1 [Compound 94] | 0 | 0 | 5.9
CC(C)OC(=O)c1ccc(COc2cc(Cl)ccc2Cl)o1 [Compound 95] | 0 | 0 | 0.97
COc1ccccc1OCc1ccc(C(=O)Oc2ccc(Cl)cc2)o1 [Compound 97] | 0 | 0 | 12.75
O=C(Oc1ccccc1)c1ccc(COc2ccccc2Cl)o1 [Compound 98] | 0 | 0 | 9.89
CCCc1ccc(OCc2ccc(C(=O)O)o2)cc1 [Compound 100] | 0 | 0 | 10.46
O=C(O)c1ccc(COc2ccc(F)cc2)o1 [Compound 102] | 0 | 0 | 5.05
